Data on ten molecules can be found in ChEMBL document CHEMBL1201862, “PubChem BioAssay data set” (2004).

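48-hour exposure; five concentrations; linearly interpolated endpoints. GI50: concentration for 50% inhibition of growth.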 Activity calls are given as the source filed them. No stated cut-off is given here; in the data, active = GI50 up to about 1.1 µM and inactive = higher. A value given as a limit tells only on which side of the number the result lay.

Test systems include TK-10; HCC 2998; SNB-75; M14; ACHN; NCI-H522; HCT-15; MCF7; SR; SF-268; OVCAR-4; NCI-H460; COLO 205; HL-60; HT-29; UACC-257; MDA-N; PC-3; MDA-MB-231; EKVX.
Holding throughout (experiment): NCI anticancer screen, dose series, 48 h

Regarding `CCCCCCN1CCc2c(C)c(C#N)c3nc4ccccc4n3c21`, the GI50 in the experiment with TK-10 is > 100 µM (inactive); in the experiment with HCC 2998, 49.3 µM (inactive); with SNB-75, 32.4 µM (inactive); in the experiment with M14 it was 63.5 µM (inactive); with ACHN, > 100 µM (inactive); in the experiment on NCI-H522, 31.4 µM (inactive). The GI50 in the experiment with HCT-15 is 27.6 µM; in the experiment with MCF7, 14.5 µM (inactive); in the experiment with SR, > 100 µM (inactive); with SF-268, > 100 µM (inactive); with OVCAR-4, 25.9 µM (inactive); in the experiment with NCI-H460 it was 16 µM (inactive). The GI50 in the experiment on COLO 205 is 29.9 µM (inactive); in the experiment with HL-60 it was 11.7 µM (inactive); in the experiment on HT-29, 18.5 µM (inactive); in the experiment with UACC-257 it was 16.3 µM (inactive); with MDA-N it was 22.7 µM (inactive); in the experiment with PC-3 it was 7.82 µM (inactive). In addition, the GI50 with MDA-MB-231 is 5.73 µM (inactive).
For the molecule `CC1CCC2C(C)C3C(CC4C5CC=C6CC(OC7OC(CO)C(O)C(OC8OC(CO)C(O)C(O)C8O)C7OC7OC(C)C(O)C(O)C7O)CCC6(C)C5CCC43C)N2C1` (stereo unspecified), the GI50 in the experiment with TK-10 is 16.3 µM (inactive); in the experiment on HCC 2998, 18.1 µM (inactive); in the experiment with SNB-75, 9.57 µM (inactive); in the experiment on M14 it was 4.67 µM (inactive); in the experiment on ACHN it was 8.89 µM (inactive); with NCI-H522 it was 15.1 µM (inactive). In addition, the GI50 in the experiment with HCT-15 was 17.3 µM; in the experiment on MCF7, 13.8 µM (inactive); in the experiment on SR it was 15.1 µM (inactive); with SF-268 it was 15.9 µM (inactive); in the experiment on OVCAR-4, 8.13 µM (inactive); in the experiment with NCI-H460, 18.5 µM (inactive). Besides, the GI50 was 16.7 µM (inactive) with COLO 205; 8.24 µM (inactive) in the experiment with HL-60; 12 µM (inactive) with HT-29; 16.1 µM (inactive) in the experiment with UACC-257; 10.7 µM (inactive) in the experiment on MDA-N; 9.27 µM (inactive) with EKVX. Also, the GI50 in the experiment on PC-3 is 14.9 µM (inactive); in the experiment with MDA-MB-231, 13.6 µM (inactive).
Consider `CC(C)(C)OC(=O)c1ccc(NCc2cc(O)ccc2O)cc1`, for which the GI50 was 2.13 µM (inactive) in the experiment on TK-10; 7.36 µM (inactive) in the experiment on HCC 2998; 3.4 µM (inactive) in the experiment on SNB-75; 1.94 µM (inactive) in the experiment with M14; 1.73 µM (inactive) with ACHN; 0.24 µM (active) in the experiment with NCI-H522. The GI50 in the experiment with HCT-15 is 1.32 µM; in the experiment with MCF7, 3.61 µM (inactive); with SR, 0.916 µM (active); in the experiment with SF-268 it was 3.44 µM (inactive); with OVCAR-4, 1.75 µM (inactive); with NCI-H460 it was 10.7 µM (inactive). Further, the GI50 in the experiment on COLO 205 was 2.08 µM (inactive); in the experiment on HL-60 it was 0.447 µM (active); with HT-29 it was 13.5 µM (inactive); with UACC-257, 3.78 µM (inactive); with MDA-N it was 3.31 µM (inactive); in the experiment with EKVX, 2.62 µM (inactive). Moreover, the GI50 is 1.5 µM (inactive) in the experiment with PC-3 and 2.31 µM (inactive) with MDA-MB-231.
Consider `CCOC(=O)C#Cc1ccc(C#CC(=O)OCC)cc1`, for which the GI50 is 2.9 µM (inactive) in the experiment on TK-10; 6.46 µM (inactive) in the experiment with HCC 2998; 0.0381 µM (active) in the experiment with SNB-75; 2.12 µM (inactive) in the experiment on M14; 3.45 µM (inactive) with ACHN; 2.9 µM (inactive) in the experiment with NCI-H522. Further, the GI50 with HCT-15 was 1.81 µM; in the experiment with MCF7, 1.54 µM (inactive); with SR it was 0.604 µM (active); in the experiment on SF-268 it was 3.88 µM (inactive); in the experiment on OVCAR-4 it was 2.83 µM (inactive); in the experiment with NCI-H460, 5.13 µM (inactive). Moreover, the GI50 in the experiment with COLO 205 was 6.21 µM (inactive); in the experiment on HL-60, 2.74 µM (inactive); with HT-29, 1.99 µM (inactive); in the experiment on UACC-257, 22.1 µM (inactive); in the experiment with MDA-N it was 1.2 µM (inactive); in the experiment with EKVX, 7.74 µM (inactive). Moreover, the GI50 is 6.85 µM (inactive) in the experiment with PC-3 and 5.11 µM (inactive) in the experiment on MDA-MB-231.
On to `O=c1c2ncn(COCCCl)c2n(-c2ccccc2)c(=S)n1-c1ccccc1`, for which the GI50 in the experiment on TK-10 is > 100 µM (inactive); with HCC 2998, > 100 µM (inactive); in the experiment with SNB-75, 4.7 µM (inactive); with M14 it was > 100 µM (inactive); in the experiment with ACHN it was > 100 µM (inactive); in the experiment on NCI-H522, > 100 µM (inactive). The GI50 was > 100 µM in the experiment on HCT-15; > 100 µM (inactive) with MCF7; > 100 µM (inactive) in the experiment with SR; > 100 µM (inactive) in the experiment with SF-268; > 100 µM (inactive) in the experiment with OVCAR-4; > 100 µM (inactive) in the experiment with NCI-H460. Moreover, the GI50 with COLO 205, with HL-60, in the experiment on HT-29, in the experiment with UACC-257, with MDA-N and in the experiment on EKVX was > 100 µM (inactive) in each case. The GI50 with PC-3 and with MDA-MB-231 was > 100 µM (inactive) in each case.
Take `CN1C=Cc2nccc3cc4c(c1c23)OCO4`: the GI50 in the experiment with TK-10 was 3.64 µM (inactive); in the experiment with HCC 2998, 4.03 µM (inactive); in the experiment on SNB-75 it was 1.49 µM (inactive); with M14, 3.56 µM (inactive); with ACHN, 1.56 µM (inactive); with NCI-H522, 0.776 µM (active). Besides, the GI50 with HCT-15 is 7.59 µM; with MCF7, 3.03 µM (inactive); with SR, 0.495 µM (active); in the experiment with SF-268 it was 3.06 µM (inactive); with OVCAR-4 it was 5.22 µM (inactive); in the experiment on NCI-H460, 0.422 µM (active). Moreover, the GI50 in the experiment on COLO 205 is 3.18 µM (inactive); with HL-60, > 20.3 µM (inactive); in the experiment on HT-29, 2 µM (inactive); in the experiment with UACC-257, 2.53 µM (inactive); with MDA-N, 2.27 µM (inactive); in the experiment on EKVX, 1.85 µM (inactive). Also, the GI50 in the experiment on PC-3 was 3.21 µM (inactive); in the experiment with MDA-MB-231 it was 3.08 µM (inactive).
Take `CC(NC(=O)C1(N)CCCC1)C(=O)O` (stereo unspecified): the GI50 in the experiment on TK-10, in the experiment on HCC 2998, in the experiment on SNB-75, in the experiment on M14, in the experiment with ACHN and in the experiment with NCI-H522 was > 100 µM (inactive) in each case. Moreover, the GI50 with HCT-15 is > 100 µM; in the experiment on MCF7 it was > 100 µM (inactive); with SR, > 100 µM (inactive); in the experiment with SF-268, > 100 µM (inactive); with OVCAR-4, > 100 µM (inactive); in the experiment with COLO 205, > 100 µM (inactive). The GI50 in the experiment with HL-60, in the experiment with HT-29, in the experiment on UACC-257, in the experiment with MDA-N, with EKVX and in the experiment on PC-3 was > 100 µM (inactive) in each case. The GI50 in the experiment with MDA-MB-231 was > 100 µM (inactive).
On to `CC(C)C(OC(=O)c1ccc(NCC2=CC(=O)C=CC2=O)cc1)C(C)C`, for which the GI50 with TK-10 was 4.25 µM (inactive); in the experiment on HCC 2998, 13.6 µM (inactive); in the experiment with SNB-75, 4.35 µM (inactive); in the experiment with M14, 6.52 µM (inactive); in the experiment on ACHN it was 9.1 µM (inactive); with NCI-H522 it was 1.22 µM (inactive). Also, the GI50 was 2.97 µM in the experiment on HCT-15; 7.93 µM (inactive) with MCF7; 3.23 µM (inactive) in the experiment on SR; 12.1 µM (inactive) in the experiment with SF-268; 3.64 µM (inactive) in the experiment on OVCAR-4; 14.6 µM (inactive) in the experiment on NCI-H460. Further, the GI50 was 2.79 µM (inactive) with COLO 205; 1.25 µM (inactive) in the experiment on HL-60; 10.7 µM (inactive) in the experiment on HT-29; 7.76 µM (inactive) with UACC-257; 5.2 µM (inactive) in the experiment with MDA-N; 8.26 µM (inactive) in the experiment on EKVX. The GI50 is 8.09 µM (inactive) in the experiment with PC-3 and 7.06 µM (inactive) with MDA-MB-231.
For the molecule `CC[C@@H](/C=C\CCC(=O)C[C@H](O)CCC=C(C)C)O[Si](C(C)C)(C(C)C)C(C)C`, the GI50 in the experiment on TK-10 was > 100 µM (inactive); in the experiment with HCC 2998 it was > 100 µM (inactive); with SNB-75, > 100 µM (inactive); with M14 it was > 100 µM (inactive); with ACHN, > 100 µM (inactive); in the experiment on NCI-H522, 48.6 µM (inactive). In addition, the GI50 in the experiment on HCT-15 was > 100 µM; with MCF7, 79.4 µM (inactive); with SR, 39.4 µM (inactive); in the experiment with SF-268, > 100 µM (inactive); in the experiment on OVCAR-4, > 100 µM (inactive); in the experiment with NCI-H460, > 100 µM (inactive). In addition, the GI50 with COLO 205 was 71.6 µM (inactive); in the experiment with HL-60, 46 µM (inactive); in the experiment with HT-29, 52.6 µM (inactive); in the experiment with UACC-257, 85.1 µM (inactive); in the experiment with MDA-N it was 88.9 µM (inactive); in the experiment on EKVX, > 100 µM (inactive). In addition, the GI50 was 75.5 µM (inactive) in the experiment with PC-3 and > 100 µM (inactive) with MDA-MB-231.
Consider `COc1ccc(-c2coc3cc(O)ccc3c2=O)cc1` [FORMONONETIN], for which the GI50 with TK-10, with HCC 2998, with SNB-75, in the experiment with M14, in the experiment on ACHN and in the experiment on NCI-H522 was > 100 µM (inactive) in each case. Besides, the GI50 with HCT-15 is > 100 µM; with MCF7 it was > 100 µM (inactive); in the experiment with SR, > 100 µM (inactive); in the experiment on SF-268 it was > 100 µM (inactive); in the experiment on NCI-H460 it was > 100 µM (inactive); with COLO 205 it was > 100 µM (inactive). For the same molecule, the GI50 in the experiment on HL-60 was > 100 µM (inactive); in the experiment with HT-29 it was > 100 µM (inactive); with UACC-257 it was > 100 µM (inactive); in the experiment with MDA-N, > 100 µM (inactive); with PC-3, > 100 µM (inactive); in the experiment on MDA-MB-231, 11.3 µM (inactive).
